We go through one molecule from publication PMC7161699 (Acta Pharmaceutica Sinica. B, 2019).

This experiment deals with PAK1 (Homo sapiens, UniProt Q13153). In words: Z'-LYTE kinase assay, Ser/Thr […] peptide. The class given is biochemical.
PAK1, sequence (Q13153 2-545): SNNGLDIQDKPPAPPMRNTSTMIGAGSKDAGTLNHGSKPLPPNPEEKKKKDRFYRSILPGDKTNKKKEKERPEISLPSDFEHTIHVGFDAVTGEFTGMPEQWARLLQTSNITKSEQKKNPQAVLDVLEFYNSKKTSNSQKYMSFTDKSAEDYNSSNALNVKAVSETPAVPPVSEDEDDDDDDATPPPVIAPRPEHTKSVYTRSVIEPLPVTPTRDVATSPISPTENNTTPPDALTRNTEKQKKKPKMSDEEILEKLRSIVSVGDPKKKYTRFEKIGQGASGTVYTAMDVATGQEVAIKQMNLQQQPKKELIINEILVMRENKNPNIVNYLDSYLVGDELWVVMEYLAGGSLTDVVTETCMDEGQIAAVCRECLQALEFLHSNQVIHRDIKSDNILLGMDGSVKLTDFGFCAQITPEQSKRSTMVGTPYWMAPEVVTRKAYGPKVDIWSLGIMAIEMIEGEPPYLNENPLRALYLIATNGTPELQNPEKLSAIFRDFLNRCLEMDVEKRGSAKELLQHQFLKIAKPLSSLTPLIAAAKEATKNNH

`Cc1ccc2[nH]c(=O)c3cc(C(=O)NCCCN(C)Cc4ccccc4)sc3c2c1` [CP734, N-[3-(benzyl-methylamino)propyl]-8-methyl-4-oxo-5H-thieno[4,5-c]quinoline-2-carboxamide]: the IC50 is 15.3 µM.
